According to US20250127790A1, “COMBINATION THERAPY USING VPS34 INHIBITORS” (Deciphera Pharmaceuticals, LLC, priority 2021, published 2025):

Assays:
Me30966 melanoma cells = experiment: qRT-PCR with siSTING, Me30966 cells; type: cell-based, Human; conditions: 2 μM, 24 h; for increase in CCL5 mRNA expression / increase in CXCL10 mRNA expression / increase in IFNB1 mRNA expression: siSCR
Protocol: Me30966 cells were transfected with siSCR or siSTING. After 48 h, cells were treated with DMSO or 2 μM of VPS34 inhibitors (Compound 1 or Compound 2) for 24 h. Cells were washed with PBS and RNA was isolated using the PureLink RNA kit (#12183018A, Thermo Fisher Scientific) according to the manufacturer's protocol. Genomic DNA was removed using DNA-binding columns (RNeasy plus kit, #74134, Qiagen) and/or DNase treatment (#12185010, Thermo Fisher Scientific). RNA was quantified using NanoDrop (Thermo Fisher Scientific) and 50 ng/μL RNA was used for cDNA synthesis with SuperScript IV VILO Master Mix (#11756050, Thermo Fisher Scientific). Quantitative RT-PCR (qRT-PCR) was run with diluted cDNA (1:25 or 1:12.5), PowerUp SYBR Green Master Mix (#A25741, Thermo Fisher Scientific), and 200 nM primers (see below) on a CFX Connect RT-PCR system (BioRad). Data was analyzed using the ΔΔCT method. Results are mean±SEM of three independent experiments.

YUMM 1.7 melanoma cells = experiment: Cytokine secretion assay, combination with cGAMP, YUMM1.7 cells; type: cell-based, mouse; conditions: 24 hours, 5 μM Compound 1 or 10 μM Compound 2, 10 mg/ml cGAMP
Protocol: YUMM1.7 cells were treated for 24 hours with DMSO or VPS34 inhibitors (5 μM Compound 1 or 10 μM Compound 2) in combination with 10 mg/ml STING agonist cGAMP (green bars). Cells were washed with PBS and RNA was isolated using the PureLink RNA kit (#12183018A, Thermo Fisher Scientific) according to the manufacturer's protocol. Genomic DNA was removed using DNA-binding columns (RNeasy plus kit, #74134, Qiagen) and/or DNase treatment (#12185010, Thermo Fisher Scientific). RNA was quantified using NanoDrop (Thermo Fisher Scientific) and 50 ng/μL RNA was used for cDNA synthesis with SuperScript IV VILO Master Mix (#11756050, Thermo Fisher Scientific). Quantitative RT-PCR (qRT-PCR) was run with diluted cDNA (1:25 or 1:12.5), PowerUp SYBR Green Master Mix (#A25741, Thermo Fisher Scientific), and 200 nM primers (see below) on a CFX Connect RT-PCR system (BioRad). Data was analyzed using the ΔΔCT method. Results are mean±SEM of three independent experiments.
Cell culture medium was centrifuged at 1600 rpm for 10 min at 4° C. and obtained supernatant stored at −80° C. Cytokine levels were quantified using following Meso Scale Discovery (MSD) assays: mouse U-PLEX RANTES/CCL5 (#K152A2K) and U-PLEX IP-10/CXCL10 (#K152UFK). Assays were run on the SECTOR Quickplex Imager and analyzed using Discovery Workbench version 4.0 (MSD).

[1] = system: 786-O renal cell carcinoma cells; experiment: Cytokine secretion assay (MSD) with siRNA knockdown, 786-O cells; type: cell-based, human; conditions: 24 h; for CCL5 and CXCL10 secretion with siRNA knockdown of CGAS: siCGAS; for CCL5 and CXCL10 secretion with siRNA knockdown of CGAS / increase in CCL5 protein secretion / increase in CXCL10 protein secretion / CCL5 and CXCL10 protein secretion with siRNA knockdown of STING: 2 μM; for CCL5 and CXCL10 secretion with siRNA knockdown of CGAS / CCL5 and CXCL10 protein secretion with siRNA knockdown of STING / secretion of CCL5 or CXCL10 with siRNA knockdown of TBK1: vs compound alone; for increase in CCL5 protein secretion / increase in CXCL10 protein secretion: siRNA against non-specific controls (siSCR); for CCL5 and CXCL10 protein secretion with siRNA knockdown of STING: siSTING; for secretion of CCL5 or CXCL10 with siRNA knockdown of TBK1: siTBK1, 2 μM
Protocol: (§1) 786-O cells were transfected with scrambled siRNA control (siSCR) or siRNA targeting TBK1 (siTBK1), STING (siSTING) or CGAS (siCGAS). After 48 h cells were treated with DMSO or 2 μM of VPS34 inhibitor (Compound 1 or Compound 2) for 24 h. Cell culture medium was centrifuged at 1600 rpm for 10 min at 4° C. and obtained supernatant stored at −80° C. Cytokine levels were quantified using following Meso Scale Discovery (MSD) assays: human R-PLEX RANTES/CCL5 (#F21ZN), U-PLEX CXCL10/IP-10 (#K151UFK). Assays were run on the SECTOR Quickplex Imager and analyzed using Discovery Workbench version 4.0 (MSD).

[2] = system: A-498 renal cell carcinoma cells; experiment: Cytokine secretion assay (MSD) with siRNA knockdown, A-498 cells; type: cell-based, human; conditions: 24 h; for CCL5 and CXCL10 secretion with siRNA knockdown of CGAS: siCGAS; for CCL5 and CXCL10 secretion with siRNA knockdown of CGAS / increase in CCL5 protein secretion / increase in CXCL10 protein secretion / CCL5 and CXCL10 protein secretion with siRNA knockdown of STING: 2 μM; for CCL5 and CXCL10 secretion with siRNA knockdown of CGAS / CCL5 and CXCL10 protein secretion with siRNA knockdown of STING / CCL5 or CXCL10 protein secretion with siRNA knockdown of TBK1: vs compound alone; for increase in CCL5 protein secretion / increase in CXCL10 protein secretion: siRNA against non-specific controls (siSCR); for CCL5 and CXCL10 protein secretion with siRNA knockdown of STING: siSTING; for CCL5 or CXCL10 protein secretion with siRNA knockdown of TBK1: siTBK1, 2 μM
Protocol: as §1, with “A-498” for “786-O”

| SMILES | increase in CCL5 mRNA expression (Me30966 melanoma cells) | increase in CXCL10 mRNA expression (Me30966 melanoma cells) | increase in IFNB1 mRNA expression (Me30966 melanoma cells) | CCL5 mRNA increase with siSTING (Me30966 melanoma cells) | CXCL10 mRNA increase with siSTING (Me30966 melanoma cells) | IFNB1 mRNA increase with siSTING (Me30966 melanoma cells) | CCL5 protein secretion (YUMM 1.7 melanoma cells) | CXCL10 protein secretion (YUMM 1.7 melanoma cells) | CCL5 and CXCL10 secretion with siRNA knockdown of CGAS [1] | increase in CCL5 protein secretion [1] | increase in CXCL10 protein secretion [1] | CCL5 and CXCL10 protein secretion with siRNA knockdown of STING [1] | secretion of CCL5 or CXCL10 with siRNA knockdown of TBK1 [1] | CCL5 and CXCL10 secretion with siRNA knockdown of CGAS [2] | increase in CCL5 protein secretion [2] | increase in CXCL10 protein secretion [2] | CCL5 and CXCL10 protein secretion with siRNA knockdown of STING [2] | CCL5 or CXCL10 protein secretion with siRNA knockdown of TBK1 [2] |
| --- | --- | --- | --- | --- | --- | --- | --- | --- | --- | --- | --- | --- | --- | --- | --- | --- | --- | --- |
| C[C@@H]1COCCN1c1cc(=O)n2c(n1)N(Cc1cncc(Cl)c1)[C@H](C(F)(F)F)CC2 [Compound 2, (S)-9-((5-chloropyridin-3-yl)methyl)-2-((R)-3-methylmorpholino)-8-(trifluoromethyl)-6,7,8,9-tetrahydro-4H-pyrimido[1,2-a]pyrimidin-4-one] | ~10 fold | ~10 fold | ~5 fold | abolished | abolished | abolished | increased | increased | near complete ablation | ~2 fold | ~2 fold | near complete ablation | decreased secretion | down to the levels of DMSO controls | ~2 fold | ~2 fold | down to the levels of DMSO controls | non-significant changes |
| C[C@@H]1COCCN1c1cc(N2CCCC[C@@H]2C(F)(F)F)[nH]c(=O)c1 [Compound 1, 4-((R)-3-methylmorpholino)-6-((R)-2-(trifluoromethyl)piperidin-1-yl)pyridin-2(1H)-one] | ~10 fold | ~10 fold | ~5 fold | abolished | abolished | abolished | increased | increased | near complete ablation | ~2 fold | ~2 fold | near complete ablation | decreased secretion | down to the levels of DMSO controls | ~2 fold | ~2 fold | down to the levels of DMSO controls | non-significant changes |
